# Laboratory results from US20210388031A1, “Designer Peptide Opsonins” (New Jersey Institute of Technology, priority 2020, published 2021).
# pIC50: −log10 of the molar value. Read-outs that look alike come from different tables or passages of the source.
# Key:
# [1] = rats IV
# Anti-drug antibodies = settings: in vivo
# A549 cell = A549 cell cytocompatibility; settings: data not shown
# [2] = 37° C., LC/MS, FIG. 6D
# [3] = Solubility of nanofibers in aqueous phosphate buffer; format: physicochemical
# Experimental: (i) SAPs are customizable solid phase peptide synthesized peptides. They are based on the canonical sequence K-(SL)6-K [SEQ.1] which aggregates via β-sheet interactions of the (SL) midblock to form fibers with polar lysine termini.^47,51 These 10-15 nm wide, 1-2 nm tall, 100s nm-μm long nanofibers are highly soluble >40 mg/mL (4w %) in aqueous phosphate buffer, FIG. 2 A-D.^57,58,60
# Formed are fibers with polar glutamic acid termini. These ˜10 nm wide×1-2 nm tall, 100s nm-μm long nanofibers are highly soluble >40 mg/mL (4w %) in aqueous phosphate buffer, FIG. 3. […] Given straightforward SPPS synthesis with excellent (>90% crude purity), scalable manufacture (worldwide) of this peptide is assured.
molecule,measurement,setting,value
Ac-ESLSLSLSLSLSLEGQYKTYIDKNNHYAEDERYK-NH2 (N-terminus and C-terminus assumed) [ESBP3],clearance,[1],4 to 6 h
same,safety profile,daily >1 mM @ 1% blood volume (~200 μL) in rats IV,excellent safety profile
same,anti-drug antibodies (ADA),Anti-drug antibodies,none seen to date
same,IC50 improved compared to SBP3 alone,SARS-CoV-2,orders of magnitude improved
QYKTYIDKNNHYAEDERYK [SBP3],IC50,"SARS-CoV-2; binding domain alone, binds to the Spike protein",μM-nM
SALEEQLKTFLDKFMHELEDLLYQLAL [SBP2],"Plaque Reduction (10 μM, n-4)",SARS-CoV-2,88%
Ac-ESLSLSLSLSLSLEGSALEEGQLKTFLDKFMHELEDLLYQLAL-NH2 (N-terminus and C-terminus assumed) [ESBP2],A549 cell cytocompatibility,A549 cell,excellent
same,IV clearance,[1]; FIG. 6C,approximately 4 hrs
same,"adverse reaction, 10 day repeat dosing","rats, 1% blood volume of 1 mM peptides, FIG. 6B",no adverse reaction
same,stability of drug formulation,[2],over 10 days
same,pIC50,SARS-CoV-2,> 8.00
same,"Plaque Reduction (10 μM, n-4)",SARS-CoV-2,74%
CC(=O)N[C@@H](CCCCN)C(=O)N[C@@H](CO)C(=O)N[C@@H](CC(C)C)C(=O)N[C@@H](CO)C(=O)N[C@@H](CC(C)C)C(=O)N[C@@H](CO)C(=O)N[C@@H](CC(C)C)C(=O)N[C@@H](CO)C(=O)N[C@@H](CC(C)C)C(=O)N[C@@H](CO)C(=O)N[C@@H](CC(C)C)C(=O)N[C@@H](CO)C(=O)N[C@@H](CC(C)C)C(=O)N[C@@H](CCCCN)C(N)=O [K-(SL)6-K],solubility,[3],> 40 mg/mL
